In US9309236B2, “PI-kinase inhibitors with broad spectrum anti-infective activity” (The Board of Trustees of the Leland Stanford Junior …, priority 2011, dated 2016) one finds CC50 and EC50 data, which are given here for 49 molecules.

Test system in one series: not listed separately
The series can be described thus: Cell toxicity (CC50), Table 3. The class given is cell-based. The note with it: human, Huh7.5 cells. The method, then: (§1) The compounds of Table 1 were prepared according to the methods described above.
On to `COc1ccc(-c2sc(NC(=O)CC3CCCCC3)nc2C)cc1S(=O)(=O)Nc1ccc(O)cc1` [AB3680], for which the cytotoxic concentration (CC50) was 54000 nM.
The same measure, in the same setting: next, `COc1ccc(NS(=O)(=O)c2cc(-c3sc(NC4CCCCC4)nc3C)ccc2OC)cn1` [AB3957]: 9000 nM; `COc1ccc(-c2sc(NC3CCCCC3)nc2C)cc1S(=O)(=O)Nc1ccc(C)cc1` [AB4106]: 58500 nM.
On the same count and under the same terms, in the case of `COc1ccc(-c2sc(NC(=O)CCC3CCCC3)nc2C)cc1S(=O)(=O)Nc1cccc(O)c1` [AB3837] it was 22000 nM.
The same measure, in the same setting: in the case of `COc1ccc(-c2sc(NC(=O)CC3CCCC3)nc2C)cc1S(=O)(=O)Nc1cccc(O)c1` [AB4109] it was 20700 nM.
In the case of `COc1cc(C)c(NS(=O)(=O)c2cc(-c3sc(NC4CCCCC4)nc3C)ccc2OC)cn1` [AB3950], the CC50 came to 12000 nM.
Still for that read-out and setting: in the case of `COc1ccccc1NS(=O)(=O)c1cc(-c2sc(NC3CCCCC3)nc2C)ccc1OC` [AB4025] it was 13000 nM.

The subject of a further series is HCV genotype 2a. In words: microbe, parasite or virus in culture. The class given is cell-based. The conditions noted are these: HCV genotype 2a in Huh7.5 cells, luciferase reporter assay; read-out: 2a EC50. On the procedure:
Anti-HCV assays are performed as described by Cho et al. “Identification of a class of HCV inhibitors directed against the nonstructural protein NS4B.” Sci. Transl.
as §1
`COc1ccc(-c2sc(NC(=O)CC3CCCCC3)nc2C)cc1S(=O)(=O)Nc1cccc(O)c1` [AB4114]: the EC50 is 200 to 1000 nM.

The same series, now with this note: Hepatitis C virus, Huh7.5, HCV genotype 2a in Huh7.5 cells, luciferase reporter assay; read-out: 2a EC50.
Turning to `COc1ccc(-c2sc(NC(=O)CC3CCCCC3)nc2C)cc1S(=O)(=O)Nc1cnc(Cl)c(C)c1` [AB4113], the EC50 lay in the range of 200 to 1000 nM.
For the molecule `COc1ccc(NS(=O)(=O)c2cc(-c3sc(NC(=O)CC4CCCC4)nc3C)ccc2OC)c(C)c1` [AB4110], the EC50 is 200 to 1000 nM.
On the same count and under the same terms, in the case of `COc1ccc(-c2sc(NCC3CCCCC3)nc2C)cc1S(=O)(=O)NC1CCNCC1` [AB4237] it was more than 1000 nM; in that of `COc1cc(C)c(NS(=O)(=O)c2cc(-c3sc(NC(C)C)nc3C)ccc2OC)cn1` [AB3979], 200 to 1000 nM.
As to `COc1ccc(-c2sc(NC3CCCCC3)nc2C)cc1S(=O)(=O)Nc1cnc(F)cc1C` [AB4052], the EC50 was less than 200 nM.
The same measure, in the same setting: next, `COc1ccc(-c2sc(NCC3CCCCC3)nc2C)cc1S(=O)(=O)NC1CCCNC1` (centres unmarked) [AB4227]: more than 1000 nM; `COc1ccc(-c2sc(CC3CCCCC3)nc2C)cc1S(=O)(=O)Nc1ccc(Cl)c(C)c1` [AB4243]: 200 to 1000 nM.
The same measure, in the same setting: in the case of `COc1ccc(-c2sc(NC(=O)CC3CCCCC3)nc2C)cc1S(=O)(=O)Nc1ccc(O)cc1` [AB3680] it was more than 1000 nM; in that of `COc1ccc(-c2sc(NC(=O)C3CCCC3)nc2C)cc1S(=O)(=O)Nc1ccc(Cl)nc1` [AB4050], 200 to 1000 nM; in that of `COc1ccc(NS(=O)(=O)c2cc(-c3sc(NC(=O)CC4CCCCC4)nc3C)ccc2OC)c(C)c1` [AB4115], 200 to 1000 nM.
The same measure, in the same setting: in the case of `COc1ccc(NS(=O)(=O)c2cc(-c3sc(NC4CCCCC4)nc3C)ccc2OC)cn1` [AB3957] it was 200 to 1000 nM; in that of `COc1ccc(NS(=O)(=O)c2cc(-c3sc(NC4CCCCCC4)nc3C)ccc2OC)c(C)c1` [AB4140], 200 to 1000 nM; in that of `COc1ccc(-c2sc(NC3CCCCC3)nc2C)cc1S(=O)(=O)Nc1ccc(C)cc1` [AB4106], 200 to 1000 nM.
For the molecule `COc1ccc(-c2sc(NC(=O)CCC3CCCC3)nc2C)cc1S(=O)(=O)Nc1cccc(O)c1` [AB3837], the EC50 is 200 to 1000 nM.
Consider `COc1ccc(-c2sc(NC3CCCCCC3)nc2C)cc1S(=O)(=O)Nc1cnc(Cl)c(C)c1` [AB4141], for which the EC50 was in the range of 200 to 1000 nM.
Still for that read-out and setting: in the case of `COc1ccccc1NS(=O)(=O)c1cc(-c2sc(NC(=O)C3CCCC3)nc2C)ccc1OC` [AB4051] it was 200 to 1000 nM; in that of `COc1ccc(-c2sc(NC3CCCCC3)nc2C)cc1S(=O)(=O)Nc1cnc(OC)c(C)c1` [AB3948], 200 to 1000 nM; in that of `COc1ccc(-c2sc(NCC3CCCCC3)nc2C)cc1S(=O)(=O)Nc1cnc(F)cc1C` [AB4225], 200 to 1000 nM.
On the same count and under the same terms, in the case of `COc1ccc(-c2sc(NC3CCCCC3)nc2C)cc1S(=O)(=O)Nc1ccc(Cl)nc1` [AB4024] it was 200 to 1000 nM; in that of `COc1ccc(-c2sc(NCC3CCCCC3)nc2C)cc1S(=O)(=O)Nc1cnc(Cl)c(C)c1` [AB4226], 200 to 1000 nM.
Same read-out and setting: in the case of `COc1ccc(-c2sc(NC(=O)C3CCCC3)nc2C)cc1S(=O)(=O)NC1CCCNC1` (centres unmarked) [AB4179] it was more than 1000 nM; in that of `COc1ccc(-c2sc(NC(C)C)nc2C)cc1S(=O)(=O)Nc1cnc(Cl)c(C)c1` [AB3977], 200 to 1000 nM; in that of `COc1ccc(-c2sc(NC(=O)CC3CCCCC3)nc2C)cc1S(=O)(=O)Nc1cnc(F)cc1C` [AB4116], 200 to 1000 nM.
As to `COc1ccc(-c2sc(NC(=O)C3CCCC3)nc2C)cc1S(=O)(=O)Nc1cnc(OC)c(C)c1` [AB3864], the EC50 was 200 to 1000 nM.
Still for that read-out and setting: in the case of `COc1ccc(-c2sc(NC(=O)CC3CCCC3)nc2C)cc1S(=O)(=O)Nc1cccc(O)c1` [AB4109] it was 200 to 1000 nM; in that of `COc1ccc(-c2sc(NC(=O)CC3CCCC3)nc2C)cc1S(=O)(=O)Nc1cnc(F)cc1C` [AB4111], 200 to 1000 nM.
Same read-out and setting: next, `COc1ccc(-c2sc(NCC3CCCCC3)nc2C)cc1S(=O)(=O)NCC1CCNCC1` [AB4228]: more than 1000 nM.
Still for that read-out and setting: in the case of `COc1ccc(-c2sc(NC(=O)CC3CCCC3)nc2C)cc1S(=O)(=O)Nc1cnc(Cl)c(C)c1` [AB4108] it was 200 to 1000 nM; in that of `COc1ccc(-c2sc(NC(=O)CC3CCCCC3)nc2C)cc1S(=O)(=O)Nc1cccc(O)c1` [AB3826], less than 200 nM.
In the case of `COc1ccc(-c2sc(NC(=O)CC3CCCC3)nc2C)cc1S(=O)(=O)Nc1ccc(Cl)cc1F` [AB4171], the EC50 fell in the range of 200 to 1000 nM.
In the case of `COc1ccc(-c2sc(NC3CCCCCC3)nc2C)cc1S(=O)(=O)Nc1ccc(Cl)cc1F` [AB4145], the concentration giving a half-maximal response (EC50) fell in the range of 200 to 1000 nM.
Still for that read-out and setting: next, `COc1ccc(-c2sc(NC(=O)C3CCCC3)nc2C)cc1S(=O)(=O)NC1CCNCC1` [AB4178]: more than 1000 nM; `COc1ccc(-c2sc(NC(=O)C3CCCC3)nc2C)cc1S(=O)(=O)Nc1ccc(Cl)cc1` [AB4185]: more than 1000 nM.
On the same count and under the same terms, in the case of `COc1ccc(NS(=O)(=O)c2cc(-c3sc(NC4CCCCC4)nc3C)ccc2OC)c(OC)n1` [AB4053] it was 200 to 1000 nM; in that of `COc1ccc(-c2sc(NC3CCCCC3)nc2C)cc1S(=O)(=O)Nc1cnc(Cl)c(C)c1` [AB3946], 200 to 1000 nM; in that of `COc1ccc(-c2sc(NC3CCCCC3)nc2C)cc1S(=O)(=O)NC1CCNCC1` [AB4173], more than 1000 nM.
The same measure, in the same setting: next, `COc1ccc(-c2sc(CC3CCCCC3)nc2C)cc1S(=O)(=O)NC1CCCNC1` (centres unmarked) [AB4241]: more than 1000 nM; `COc1ccc(-c2sc(CC3CCCCC3)nc2C)cc1S(=O)(=O)Nc1ccc(Cl)c(F)c1` [AB4242]: 200 to 1000 nM.
On to `COc1ccc(-c2sc(NC3CCCCCC3)nc2C)cc1S(=O)(=O)Nc1cccc(O)c1` [AB4139], for which the EC50 lay in the range of 200 to 1000 nM.
The same measure, in the same setting: next, `COc1ccc(NS(=O)(=O)c2cc(-c3sc(NC(=O)C4CCCC4)nc3C)ccc2OC)c(OC)n1` [AB4054]: 200 to 1000 nM; `COc1ccc(-c2sc(NCC3CCCCC3)nc2C)cc1S(=O)(=O)Nc1cnc(Cl)c(F)c1` [AB4229]: more than 1000 nM.
On to `COc1ccc(-c2sc(CC3CCCCC3)nc2C)cc1S(=O)(=O)Nc1cnc(Cl)c(C)c1` [AB4239], for which the half-maximal effective concentration (EC50) is 200 to 1000 nM.
On the same count and under the same terms, next, `COc1cc(C)c(NS(=O)(=O)c2cc(-c3sc(NC(=O)CC4CCCC4)nc3C)ccc2OC)cn1` [AB4107]: 200 to 1000 nM.
Take `COc1cc(C)c(NS(=O)(=O)c2cc(-c3sc(NC4CCCCC4)nc3C)ccc2OC)cn1` [AB3950]: the EC50 is less than 200 nM.
As for `COc1ccccc1NS(=O)(=O)c1cc(-c2sc(NC3CCCCC3)nc2C)ccc1OC` [AB4025], the EC50 lay within 200 to 1000 nM.
On the same count and under the same terms, next, `COc1cc(C)c(NS(=O)(=O)c2cc(-c3sc(NC(=O)CC4CCCCC4)nc3C)ccc2OC)cn1` [AB4112]: 200 to 1000 nM; `COc1ccc(-c2sc(NC3CCCCC3)nc2C)cc1S(=O)(=O)NC1CCCNC1` (centres unmarked) [AB4174]: more than 1000 nM; `COc1ccc(-c2sc(CC3CCCCC3)nc2C)cc1S(=O)(=O)NC1CCNCC1` [AB4240]: more than 1000 nM.
